According to patent publication EP3282019A1, “[…] TREATMENT OF CANCER, IN […] L[…]” (priority 2016, dated 2018):

Key:
[1] = tested on: NOTCH2 (N2^IC / Mastermind / CSL) transcription factor complex; test: EMSA of DNA-bound NOTCH2 complexes in nuclear extracts of CLL cells; type: cell-based, human
Protocol: Preparation of nuclear extracts and EMSA: 3x10^7 cells were lysed in 1ml hypotonic buffer (10mM HEPES, pH 7.9; 1.5mM MgCl2; 10mM KCL) containing 0.15% NP-40 at 4°C for 10 min. The nuclear proteins were extracted from the nuclear fraction by resuspending the nuclei in 100µl extraction buffer (300mM KCl; 1.5mM MgCl2; 20mM HEPES pH 7.9; 0.2mM EDTA; 25% Glycerin) at 4°C for 20 min with constant agitation. The CSL site spanning EMSA probe was derived from the CD23a promoter (5'-[…]-3' (SEQ ID NO: 40) annealed with the reverse complementary strand). The N1^IC (bTAN 20) and N2^IC (C651.6DbHN) antibodies was obtained from the Developmental Studies Hybridoma Bank (University of Iowa, Department of Biological Science, Iowa City, IA). EMSA was performed essentially as described (Hubmann et al., 2010)

[2] = tested on: NOTCH and apoptosis related genes; test: semiquantitative RT-PCR of NOTCH and apoptosis related genes in CLL cells; type: cell-based, human; conditions: for NOTCH3 expression / NR4A1 expression: Fig 3A, right panel
Description: PCR, RT-PCR, and Western blot analysis: Total RNA was extracted using the Trizol isolation system (Invitrogen/Life Technologies, Paisley, UK). Genomic DNA (gDNA) was extracted using the Wizard Genomic DNA extraction kit from Promega. M-MLV reverse transcriptase and GoTaq PCR kits (Promega, WI, USA) were used for semiquantitative reverse transcriptase polymerase chain reactions (RT-PCR).
PCR and RT-PCR techniques (long range PCR using genomic DNA, semiquantitative RT-PCR), and western blotting (Modular Mini-Protean II system from Bio Rad) were used routinely according to standard protocols.

CLL cells [3] = test: FACS detection of apoptosis (AnnexinV / propidium iodide) in CLL cells, PMA activation model; type: cell-based, human
Protocol: Cell lines and culture: CLL cells were cultured in RPMI 1640 medium containing 10% fetal calf serum, 100U/ml penicillin and […] streptomycin at 37 °C, 7.5% CO2 in humidified atmosphere. The ex vivo CLL microenvironment model based on using primary human bone marrow stromal cells in co-culture with CLL cells was applied as previously described and was used for analysing the effect of gliotoxin, RO4929097, and blocking antibodies on CLL cells in a milieu resembling the situation in vivo (Shehata et al., 2004). The PMA activation model was used to analyse the function of PKC stimulation on the regulation of NOTCH2/NOTCH3 signalling in CLL cells.
Flow cytometry (FACS) and detection of cell viability: Antibodies (CD5, CD19, CD20, CD23, CD49d, CD37, CD52, and 7-Aminoactinomycin D (7-AAD) were purchased from Becton Dickinson (San Jose, CA). Species- and isotype-matched irrelevant antibodies are used as controls. Flow cytometry was performed on a FACScan® using CellQuest Pro software version 5.2.1 (Becton Dickinson, San Jose, CA). Ultra high speed cell sorting was used to isolate CD5+/CD19+ CLL cells from normal B-cells (CD19+/CD5-) and T-cells (CD3+). AnnexinV, propidium iodide, and 7-AAD staining was performed to estimate the percentages of cells undergoing apoptosis. The overall effect on cell viability was calculated as the sum of early apoptotic (AnnexinV single positive; Ax+/PI-) and late apoptotic/necrotic (AnnexinV/propidium iodide double positive; Ax+/PI+) cells using a kit from Bender Med. Systems Inc. (Vienna, AT). Cell viability was evaluated by a nonisotopic MTT (3-(4,5-dimethylthiazolyl-2)-2,5-diphenyltetrazolium bromide) assay (Ez4U) in 96-well culture plates as described by the manufacturer (Biomedica, AT).

CLL cells [4] = test: ex vivo CLL microenvironment model (co-culture with primary human bone marrow stromal cells)
[5] = chronic stimulation with PMA, after 3 days, CLL cells
[6] = RO4929097 0.5µM, PMA-activated CLL cells expressing a GSI resistant form of nuclear NOTCH2

In the case of C[C@H](NC(=O)Cc1cc(F)cc(F)c1)C(=O)N[C@H](C(=O)OC(C)(C)C)c1ccccc1 [DAPT], the “nuclear NOTCH2 activity” value ([1]; 5µM DAPT, majority of CLL cases, Fig. 1A and B) is reported as “no effect” and the “sensitivity of DNA-bound NOTCH2 complexes to GSI” value ([1]; majority of CLL cases, Fig. 2B) is reported as “less sensitive/resistant”.
In the case of CCCCCCCCCCCCCC(=O)O[C@@H]1[C@@H](C)[C@@]2(O)[C@@H](C=C(CO)C[C@]3(O)C(=O)C(C)=C[C@@H]23)[C@@H]2C(C)(C)[C@]12OC(C)=O [PMA], the “expression of all NOTCH ligands” value ([2]; PMA-activated CLL cells, Fig 2C, lane 4) is reported as “downregulation”, the NOTCH3 expression [2, 5] is reported as “upregulation” and the NR4A1 expression [2, 5] is reported as “upregulation”.
For CC(C)(C(=O)NCC(F)(F)C(F)(F)F)C(=O)N[C@@H]1C(=O)Nc2ccccc2-c2ccccc21 [RO4929097], the NOTCH3 expression [2, 6] was “inhibits”, the NR4A1 expression [2, 6] was “inhibits” and the gliotoxin mediated apoptosis (CLL cells [3]; RO4929097 0.5µM with gliotoxin 0.2µM, PMA-activated CLL cells expressing a GSI resistant form of nuclear NOTCH2, Fig 3B) was “counteracts”. For the same molecule, the spontaneous apoptosis (CLL cells [3]; RO4929097 0.5µM, PMA-activated CLL cells expressing a GSI resistant form of nuclear NOTCH2, Fig 3B) was “counteracts”.
CN1C(=O)[C@]23CC4=CC=C[C@H](O)[C@H]4N2C(=O)[C@@]1(CO)SS3 [gliotoxin] was tested, and the NOTCH2 signalling [2] was “rapidly inhibited”, the “NOTCH3 mRNA expression” value [2] was “upregulated” and the “NR4A1 mRNA expression” value [2] was “upregulated”. For the same molecule, the “co-expression of NOTCH3 and its ligand JAG2 (unstimulated cells) or DLL1 (PMA activated cells)” value [2] was “induced co-expression”, the “apoptosis in CLL cells” value (CLL cells [3]) was “efficiently induced apoptosis” and the “protective effect of PMA on CLL cells” value (CLL cells [3]) was “reversed the protective effect of PMA”. The “anti-apoptotic effect of bone marrow stromal cells” value (CLL cells [4]) was “could also overcome the anti-apoptotic effect”, the “NOTCH2 at the transcription factor level” value [1] was “inhibits NOTCH2 at the transcription factor level” and the NOTCH2 transactivation [1] was “potent NOTCH2 transactivation inhibitor”. The “assembly of the ternary NOTCH2 (N2^IC / Mastermind / CSL) transcription factor complex on DNA” value [1] was “interferes with the assembly”.
